Reference: patent US11524956B2, “Alkyne substituted quinazoline compound and methods of use” (Newgen Therapeutics, Inc., priority 2011, dated 2022)
“Also recorded” adds a separate entry of the source.

How the values were obtained:
EGFR kinase = EGFR kinase (Homo sapiens (Human), UniProt P00533); assay: Kinase assay for EGFR (TR-FRET, LanthaScreen); format: biochemical; details: read-out: Kinase inhibition IC50 (nM) EGFR
Protocol: The extent to which the compounds of the present invention modulate EGFR kinase activity can be determined using time-resolved Fret (TR-FRET) assay (LanthaScreen® kinase activity assay, from InVitrogen). The assay employs EGFR kinase (PV3872, Invitrogen), Tb-Py20 antibody (PV3552, InVitrogen) and fluorescein-poly GT (PV3610, InVitrogen).
The assay is performed in a Black 384-well plate (available from Corning). EGFR kinase (is diluted in TR-FRET Dilution Buffer (PV3189, InVitrogen) at concentration of 0.4 ug/ml as stock solution, and then 2-fold serial diluted. Addition of 1 mM ATP initiated the reaction, and the reaction is incubated for […] at room temperature. 10 μL of the Tb-antibody (from InVitrogen)+EDTA (from InVitrogen) solution prepared was added to each well of the assay plate and mix briefly, and incubated for 30 min. The signal is monitored by using M5 microplate reader (Ex=332 nm, Em=488 nm and 518 nm). Each compound is tested in duplicate wells. EGFR without compound is used as control. Staurosporine (available from Sigma) is used as positive control compound. Inhibition was calculated as percentage of the EGFR activity (without compound).

ErbB2 kinase protein = ErbB2 kinase protein (Homo sapiens (Human), UniProt P04626); assay: Kinase assay for ErbB2; format: biochemical; details: read-out: Kinase inhibition IC50 (nM) ErbB2
Protocol: The assay is performed similarly to the kinase assay for […] as described above, except ErbB2 kinase protein is used instead of EGFR kinase protein.

BT474 cells = assay: Cell proliferation inhibition assay for BT474 (CCK-8); format: cell-based; details: Homo sapiens, BT-474; 72h
Protocol: Human breast cancer BT474 cells was cultured in low glucose DMEM (Life Technologies 12320-032) containing 10% fetal bovine serum (FBS) at 37° C. in a humidified 10% CO2, 90% air incubator. Cells were harvested using trypsin EDTA, counted using a haemocytometer, and plated 10000 cell/well in a 96-well clear tissue culture plate. The cells were incubated for 24 h at 37° C. to allow adherence. A serials of concentrations of each compound (ranging from 30 um to 0.16 nM, 5-fold dilution) in 96-well plate, and incubated for 72h. Each concentration was tested in triplicate wells. During the cell proliferation assay, BT474 cells were cultured in low-glucose DMEM containing 5% FBS, 50 ug/ml gentamicin, and 0.3% v/v DMSO. The culture medium was removed via aspiration, and the cell viability was detected by using CCK-8 cell proliferation kit. The IC50 value measured for each compound in Examples 1 to 7 is <100 nM.

NCI-N87 xenograft = assay: In vivo efficacy in NCI-N87 xenograft mouse model; details: 80 mg/kg p.o. bid
Protocol: NCI-N87 cell line was purchased from ATCC (American Type Culture Collection) and was cultured in RPMI1640+10% FBS+1% P/S antibiotics.
Male Balb/c nude mice, 6-8 week, 18±2 g (supplier: Shanghai SLAC Laboratory Animal Co. Ltd.) were used for the experiment. The purchased mice were adapted to the environment for 7 days before use, and were housed at 22-25° C. with humidity 40-70%, and light cycle with fluorescent light for 12-hour light (8:00-20:00) 12-hour dark. The mice have free access to food and water.
The cancer cells (NCI-N87) were implanted subcutaneous into the nude mice (right flank) with 5.0×10^6 cells in 0.1 ml PBS (50 mice). When the tumor size reaches a volume of 200 (150-200) mm^3, the tumor-bearing nude mice were randomly assigned into groups (10 mice/group), one group was served as vehicle, one group was administrated with Lapatinib ditosylate monohydrate (80 mg/kg, free base of Lapatinib, not salt, p.o. […]). The other two groups were administrated with NT113 (also referred to as KID 113) ((15 and 30 mg/kg, p.o.q.d, respectively). The administration period lasted for 4 weeks.
The mice were monitored twice daily for appearance and behavior, and for signs of morbidity and/or mortality. The tumor volume was measured twice a week, and the body weight was measured immediately before measuring the tumor volume throughout the whole study.
At end of the experiment (compound administration for four weeks), all the tumor-bearing mice were sacrificed by cervical dislocation under deep anesthesia. The tumor mass was resected, and weighed.
Tumor sizes were measured twice weekly in two dimensions using a caliper, and the volume was expressed in mm^3 using the formula: V=½×a×b^2 where a and b are the long and short diameters of the tumor, respectively. The tumor mass was weighed at the end of the experiment after harvested.
V=½×a×b^2 (a, h is maximum and minimum diameters respectively).
RTV (Relative Tumor Volume)=Vt/Vo • Vo is the tumor volume when the test article is initial administrated • Vt is the tumor volume of every measurement day after test article administration
T/C (%)=TRTV/CRTV×100% • TRTV: RTV of test article-treatment group; CRTV: RTV of control group Inhibition rate (%)=(average tumor volume of control group average cancer volume of test article treatment group)/average tumor volume of control group×100%
The tumor-bearing mice were treated for 4 weeks with different doses of KU (15 mg/kg, 30 mg/kg, […]), qd) and Lapatinib KUA-1, 80 mg/kg, p.o., bid, 7 days/week. At the day-7 after treatment, the RTV TIC KU113 (15 mg/kg, 30 mg/kg) groups were <30%, and the tumor growth inhibition was >70%. but the RTV TIC was 31% and tumor growth inhibition rat was 69% in the lapatinib group. The same result was observed as well when it comes to the tumor weight. On day 28 after treatment, all the tumor-bearing mice were sacrificed, and all the tumor masses were harvested to weigh.

[1] = Rat pharmacokinetics studies (plasma); format: in vivo, Sprague Dawley rats; details: rat
Protocol: Sample preparation: The test article each was dissolved in 10% DMSO and 90% of (40% HP-β-CD in deionized water) to yield concentration at 2 mg/mL for intravenous and oral administration.
Method development and plasma samples analysis were performed by Analytical Sciences Division of the Testing Facility by means of LC-MS/MS. The analytical results were confirmed using quality control samples for intra-assay variation (within day variation). The accuracy of >66% of the quality control samples was between 80-120% of the known value(s).
Each group consisted of 3 male Sprague Dawley rats (7-8 week old, 200-300 g body weight). The test articles were administered by a single bolus intravenous injection via the lateral tail vein or via oral gavage.
Blood samples (approximately 300 μl) were collected via retro-orbital puncture after anaesthesia using mixed gas (CO2:O2=7:3) into tubes containing EDTA-K3 anticoagulant at appropriate time points. 10 time points (Groups 1-2): Pre-dose and post-dose at 5 min, 15 min, 30 min, 1 h, 2 h, 4 h, 6 h, 8 h and 24 h.
Analysis: The PK blood samples were centrifuged at approximately 8000 rpm for (3 minutes at 2-8° C. and the resulting plasma were separated and stored frozen at approximately −80° C. (following separation, the plasma may be initially placed on ice prior to being stored in the −80° C. freezer). All the plasma samples were labeled with detailed information such as study number, animal number, matrix, time points of collection and date of collection.
Standard set of parameters including Area Under the Curve (AUC(0-t) and AUC(0-∞)), elimination half-live (T1/2), maximum plasma concentration (Cmax), time to reach maximum plasma concentration (Tmax), clearance (CL), and volume of distribution (Vz) will be calculated using noncompartmental analysis modules in FDA certified pharmacokinetic program WinNonlin Professional v5.2 (Pharsight, USA) by the Study Director. Furthermore, the Bioavailability will be estimated using the following formula:
• AUC(0-t) Area under the curve from the time of dosing to the last measurable concentration • AUC(0-∞) Area under the curve from the time of dosing extrapolated to infinity, based on the last observed concentration • CL Total body clearance, CL=Dose/AUC • Cmax Maximum observed concentration, occurring at Tmax • F Bioavailability • MRT(0-∞) Mean residence time from the time of dosing to infinity • Tmax Time of maximum observed concentration • T1/2 Terminal half-life=In(2)/λz • Vz Volume of distribution based on the terminal phase

Rat brain concentration = format: in vivo, Sprague Dawley rats; details: predetermined time points
Protocol: Brain concentration: Three rats are for brain collection (2h) only. Three rats are for brain collection (4 h) only. The rest 3 rats are for plasma (9 time points) and brain collection (24h).
Brain Collection and Tissue Processing: Post blood collection, the brain was first perfused intracardially with ˜150 mL of ice-cold, 0.1 M Phosphate Buffered Saline (PBS) at pH7.4. Then, the dura was removed before weighing the brain. The brain was then dissected into smaller pieces, rinsed twice with ˜10 mL PBS, and then flash frozen on dry ice, and stored at −80° C. before analysis.
Before tissue processing, rat brains were thawed. For the preparation of analytical standards, purchased frozen rat brains (from Pelfreez) were similarly thawed, dissected, rinsed with PBS, and 100 μL of Compound A stock solution (at 500 ng/mL and 1, 2 5, 10, and 50 μg/mL in acetonitrile) was spiked directly into the tissue. Both Compound A dosed and spiked brains then underwent the same processing procedures described below.
Briefly, 2 mL of water was added to each brain before homogenization. Homogenize the brain in 2 to 3 sessions, each approximately 15 sec. The mechanical probe of the homogenizer was cleansed in water, 70% ethanol, and ethyl acetate after each sample. The resulting brain homogenates were then extracted with ethyl acetate three times (14 mL total), and centrifuged to separate the aqueous and organic phases after each extraction. Per brain, pooled organic phase were evaporated under a stream of nitrogen at 40° C. and the residues were reconstituted with 4 mL of mobile phase B. Compound A spiked brain samples in the 4 mL solutions had final concentrations of 12.5, 25, 50, 125, 250, 1250 ng/mL. The reconstituted samples were incubated for ˜15 minutes at 60° C. and, vortexed for 10 minutes to fully dissolve the analytes. The samples were centrifuged, and then further diluted with Mobile phase B (shown below) before LC/MS/MS analysis. Dilute 20 μL of reconstituted samples with 1.5 mL mobile phase B. Transfer and inject supernatant to […] system for analysis.

Sequence of EGFR kinase (P00533 668-1210): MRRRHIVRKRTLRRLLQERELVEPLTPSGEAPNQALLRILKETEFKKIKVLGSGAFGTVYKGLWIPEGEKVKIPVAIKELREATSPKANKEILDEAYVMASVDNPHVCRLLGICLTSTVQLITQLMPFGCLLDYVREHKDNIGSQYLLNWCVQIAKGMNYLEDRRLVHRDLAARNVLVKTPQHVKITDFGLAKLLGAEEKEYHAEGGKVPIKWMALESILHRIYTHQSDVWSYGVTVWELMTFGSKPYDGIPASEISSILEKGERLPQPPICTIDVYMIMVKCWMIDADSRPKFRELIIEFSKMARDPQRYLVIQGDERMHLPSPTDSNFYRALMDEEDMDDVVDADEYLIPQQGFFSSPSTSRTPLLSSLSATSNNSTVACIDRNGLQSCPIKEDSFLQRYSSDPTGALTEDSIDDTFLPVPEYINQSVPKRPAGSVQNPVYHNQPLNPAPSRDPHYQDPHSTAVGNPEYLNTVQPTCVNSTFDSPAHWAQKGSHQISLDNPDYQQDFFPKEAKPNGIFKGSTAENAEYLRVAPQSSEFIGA
Sequence of ErbB2 kinase protein (P04626 23-1255): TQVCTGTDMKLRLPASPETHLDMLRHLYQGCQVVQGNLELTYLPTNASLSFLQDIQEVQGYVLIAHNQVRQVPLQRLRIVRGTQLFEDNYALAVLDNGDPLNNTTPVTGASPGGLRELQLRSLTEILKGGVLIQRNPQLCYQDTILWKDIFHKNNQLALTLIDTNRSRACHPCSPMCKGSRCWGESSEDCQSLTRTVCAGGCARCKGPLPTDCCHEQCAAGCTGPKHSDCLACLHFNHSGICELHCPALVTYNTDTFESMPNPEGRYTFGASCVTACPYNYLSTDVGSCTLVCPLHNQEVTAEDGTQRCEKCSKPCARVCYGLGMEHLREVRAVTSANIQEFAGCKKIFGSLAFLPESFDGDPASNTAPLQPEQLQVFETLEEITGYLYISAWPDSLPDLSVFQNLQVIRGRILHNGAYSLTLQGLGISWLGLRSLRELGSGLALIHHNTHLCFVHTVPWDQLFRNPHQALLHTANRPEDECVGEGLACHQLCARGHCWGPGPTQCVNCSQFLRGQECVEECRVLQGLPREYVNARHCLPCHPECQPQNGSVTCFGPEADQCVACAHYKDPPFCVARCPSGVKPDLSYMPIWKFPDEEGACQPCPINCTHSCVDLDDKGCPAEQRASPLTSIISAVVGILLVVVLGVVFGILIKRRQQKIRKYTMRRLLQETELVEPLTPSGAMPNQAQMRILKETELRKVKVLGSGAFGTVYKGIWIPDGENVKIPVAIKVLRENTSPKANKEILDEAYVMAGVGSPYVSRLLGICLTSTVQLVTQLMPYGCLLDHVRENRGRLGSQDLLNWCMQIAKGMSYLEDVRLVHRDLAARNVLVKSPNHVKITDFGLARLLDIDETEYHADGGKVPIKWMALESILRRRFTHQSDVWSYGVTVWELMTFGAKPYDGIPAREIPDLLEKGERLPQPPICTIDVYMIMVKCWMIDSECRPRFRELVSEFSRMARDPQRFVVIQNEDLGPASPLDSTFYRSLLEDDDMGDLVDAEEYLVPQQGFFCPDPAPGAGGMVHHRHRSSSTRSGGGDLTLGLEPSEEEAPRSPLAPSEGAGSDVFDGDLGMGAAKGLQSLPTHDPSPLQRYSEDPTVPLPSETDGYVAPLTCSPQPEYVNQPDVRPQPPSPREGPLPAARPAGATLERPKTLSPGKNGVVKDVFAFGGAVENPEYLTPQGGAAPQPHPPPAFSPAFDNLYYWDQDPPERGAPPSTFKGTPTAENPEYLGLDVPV

| Structure (SMILES) | IC50 (EGFR kinase) | IC50 (ErbB2 kinase protein) | IC50 (BT474 cells) | also measured |
| --- | --- | --- | --- | --- |
| CN(C)C/C=C/C(=O)Nc1cc2c(Nc3ccc(F)c(Cl)c3)ncnc2cc1C#C[C@@]12COC[C@@H]1C2 [Example 7, (E)-N-(4-(3-chloro-4-fluorophenylamino)-7-(2-((1S,5R)-3-oxa-bicyclo[3.1.0]hexan-1-yl)ethynyl)quinazolin-6-yl)-4-(dimethylamino)but-2-enamide] | < 100 nM | < 100 nM | < 100 nM | – |
| CN(C)C/C=C/C(=O)Nc1cc2c(Nc3ccc(F)c(Cl)c3)ncnc2cc1C#C[C@@H]1CCCO1 [Example 2, (E)-N-(4-(3-chloro-4-fluorophenylamino)-7-(2-((S)-tetrahydrofuran-2-yl)ethynyl)quinazolin-6-yl)-4-(dimethylamino)but-2-enamide] | < 100 nM | < 100 nM | < 100 nM | – |
| CS(=O)(=O)CCNCc1ccc(-c2ccc3ncnc(Nc4ccc(OCc5cccc(F)c5)c(Cl)c4)c3c2)o1 [Lapatinib, reference compound] | – | – | – | tumor inhibition rate (NCI-N87 xenograft; day 28 (last day of the study)): 92.9%; RTV T/C (NCI-N87 xenograft; day-7 after treatment): 31%; tumor growth inhibition rate (NCI-N87 xenograft; day-7 after treatment): 69% |
| CN(C)C/C=C/C(=O)Nc1cc2c(Nc3ccc(F)c(Cl)c3)ncnc2cc1C#C[C@H]1CCCO1 [Example 3, (E)-N-(4-(3-chloro-4-fluorophenylamino)-7-(2-((R)-tetrahydrofuran-2-yl)ethynyl)quinazolin-6-yl)-4-(dimethylamino)but-2-enamide] | < 100 nM | < 100 nM | < 100 nM | – |
| CN(C)C/C=C/C(=O)Nc1cc2c(Nc3ccc(F)c(Cl)c3)ncnc2cc1C#CC1CCOC1 (stereo not shown) [Example 1, (E)-N-(4-(3-chloro-4-fluorophenylamino)-7-(2-(tetrahydrofuran-3-yl)ethynyl)quinazolin-6-yl)-4-(dimethylamino)but-2-enamide] | < 100 nM | < 100 nM | < 100 nM | – |
| CN(C)C/C=C/C(=O)Nc1cc2c(Nc3ccc(F)c(Cl)c3)ncnc2cc1C#CC12COCC1C2 (stereo not shown) [Example 5, (E)-N-(4-(3-chloro-4-fluorophenylamino)-7-(2-(3-oxa-bicyclo[3.1.0]hexan-1-yl)ethynyl)quinazolin-6-yl)-4-(dimethylamino)but-2-enamide] | < 100 nM | < 100 nM | < 100 nM | – |
| CN(C)C/C=C/C(=O)Nc1cc2c(Nc3ccc(F)c(Cl)c3)ncnc2cc1C#C[C@]12COC[C@H]1C2 [Example 6, (E)-N-(4-(3-chloro-4-fluorophenylamino)-7-(2-((1R,5S)-3-oxa-bicyclo[3.1.0]hexan-1-yl)ethynyl)quinazolin-6-yl)-4-(dimethylamino)but-2-enamide] | < 100 nM | < 100 nM | < 100 nM | – |
| CN(C)C/C=C/C(=O)Nc1cc2c(Nc3ccc(F)c(Cl)c3)ncnc2cc1O[C@H]1CCOC1 [afatinib, reference compound] | – | – | – | rat PK (qualitative) [1]: poor PK; Kp (Rat brain concentration; Sprague Dawley, brain/plasma, read-out: Brain/plasma concentration ratio): < 0.05; brain concentration (Rat brain concentration): < 1 ng/g; brain concentration (detectability) (Rat brain concentration): no detectable brain concentration; also recorded: below detection limit |
